Data set [1] deals with HeLa. Description: Photo-antiproliferative activity against human HeLa cells under dark condition. The format is functional, cell-based.
The subject of data set [2] is Zone of skin. Description: Phototoxicity in depilated guinea pig skin assessed as formation of erythema. It counts as tissue-based, Cavia porcellus.
For data set [3], the system named is Nucleic Acid. The data set is described as follows: Binding affinity to DNA assessed as intercalation between base pairs by linear flow dichroism spectroscopy. The format is nucleic-acid assay.
The subject of data set [4] is HeLa. Description: Photo-antiproliferative activity against human HeLa cells exposed to 365 nm, 0.793 Jcm'-2 UVA light. It counts as functional, cell-based. The conditions noted are these: light or radiation study.

The source made the active and inactive calls. The rule behind the calls is not given here.

By IC50 is commonly meant the concentration at which inhibition is half-maximal. Take `COc1c2occc2cc2ccc(=O)oc12` [METHOXSALEN]: the IC50 in data set [1] was greater than 20 µM. The Activity entry in data set [2] was “Toxic”.
For `CN(C)CCCOc1c2oc(=O)ccc2cc2c1oc1nnccc12`, the half-maximal inhibitory concentration (IC50) in data set [1] is 13.5 µM; in data set [4] it was 2900 nM. Besides, in data set [3], the result was Active.

The values above are taken from ChEMBL document CHEMBL1151857, “A new psoralen derivative with enlarged antiproliferative properties” (Bioorg Med Chem Lett, 2009).
